Source: patent US20020165148A1, “Analogues and derivatives of gastrin releasing peptide (GRP)” (priority 2000, published 2002)

Tests used:
DPP IV = biological target: T1, DPP IV (Rattus norvegicus, UniProt P14740); experiment: inactivation by DPP IV cleavage / half-life in plasma; format: in vitro ADME
T1 construct: cleavage by the enzyme DPP IV in plasma; from tissue; host or cells: plasma

diabetic rats = experiment: injection of GRP into diabetic rats, clearance of blood glucose; format: in vivo
pancreatic islet cells = pancreatic islet cells in vitro; cited from earlier work

T1 sequence (P14740 37-767 limits assumed): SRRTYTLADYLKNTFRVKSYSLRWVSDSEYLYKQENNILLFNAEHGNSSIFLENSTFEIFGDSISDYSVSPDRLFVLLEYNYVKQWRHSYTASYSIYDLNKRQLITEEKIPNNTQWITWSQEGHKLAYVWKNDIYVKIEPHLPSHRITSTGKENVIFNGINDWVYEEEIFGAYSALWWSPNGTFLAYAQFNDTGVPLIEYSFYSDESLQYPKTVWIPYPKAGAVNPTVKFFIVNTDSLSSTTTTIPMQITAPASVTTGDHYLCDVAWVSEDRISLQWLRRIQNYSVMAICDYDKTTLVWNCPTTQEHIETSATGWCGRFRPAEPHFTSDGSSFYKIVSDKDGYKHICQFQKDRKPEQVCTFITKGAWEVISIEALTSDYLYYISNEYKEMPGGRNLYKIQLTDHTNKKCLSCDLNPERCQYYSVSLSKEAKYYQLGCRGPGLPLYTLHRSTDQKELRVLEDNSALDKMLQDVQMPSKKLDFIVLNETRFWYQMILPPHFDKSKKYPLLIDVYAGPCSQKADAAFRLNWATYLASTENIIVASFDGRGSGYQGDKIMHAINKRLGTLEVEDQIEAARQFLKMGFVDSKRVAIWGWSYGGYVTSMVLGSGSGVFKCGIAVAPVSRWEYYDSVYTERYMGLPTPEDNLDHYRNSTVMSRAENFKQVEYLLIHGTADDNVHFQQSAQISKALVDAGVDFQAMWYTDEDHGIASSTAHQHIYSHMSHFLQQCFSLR

CSCC[C@H](NC(=O)[C@H](CC(C)C)NC(=O)[C@H](Cc1c[nH]cn1)NC(=O)CNC(=O)[C@@H](NC(=O)[C@H](C)NC(=O)[C@H](Cc1c[nH]c2ccccc12)NC(=O)[C@H](Cc1c[nH]cn1)NC(=O)[C@H](CC(N)=O)NC(=O)CNC(=O)[C@H](CCCNC(=N)N)NC(=O)[C@@H]1CCCN1C(=O)[C@H](Cc1ccc(O)cc1)NC(=O)[C@H](CCSC)NC(=O)[C@H](CCCCN)NC(=O)[C@@H](NC(=O)[C@H](CC(C)C)NC(=O)[C@@H](NC(=O)[C@@H](NC(=O)CNC(=O)CNC(=O)CNC(=O)[C@H](C)NC(=O)[C@@H]1CCCN1C(=O)[C@H](CC(C)C)NC(=O)[C@@H]1CCCN1C(=O)[C@@H](N)C(C)C)[C@@H](C)O)C(C)C)[C@@H](C)O)C(C)C)C(N)=O [GRP]
inactivation as a result of cleavage by DPP IV in plasma (DPP IV): rapid inactivation
duration of glucose-lowering action (diabetic rats; in vivo, diabetic rats): only for a short period of time
clearance of blood glucose (diabetic rats; injection into diabetic rats): markedly accelerated clearance of blood glucose
potentiation of glucose-induced insulin secretion (pancreatic islet cells): potentiate glucose-induced insulin secretion
